Measurements from patent US8383626B2, “Nitric oxide donors for inducing neurogenesis” (Henry Ford Health System, priority 1999, dated 2013).
Several values for one entry are separate records, joined by “and”; a condition that tells them apart may be missing. Identical values can stand only once.

Assays:
Type in all cases: in vivo, rat
[1] = tested on: focal embolic cerebral ischemic brain; assay: Ischemic lesion volume after embolic MCA occlusion; conditions: ischemic rats
Procedure: (§1) Male Wistar rats (n=30) weighing 300-350 g were subjected to middle cerebral artery (MCA) occlusion. The MCA was occluded by placement of an embolus at the origin of the MCA. Briefly, a single intact fibrin rich 24 hour old homologous clot (about 1 μl) was placed at the origin of the MCA via a fifteen mm length of modified PE-50 catheter. The experimental protocol consisted of four groups. In Group I (control group), rats were subjected to MCA occlusion and received four consecutive intravenous bolus doses of saline (0.52 ml each, every fifteen minutes) at 24 hours after ischemia. Group II (DETNO/NO precondition) rats received four consecutive intravenous bolus doses of DETANONO (0.1 mg/kg each, every fifteen minutes, and total dose 0.4 mg/kg) at 24 hours before embolization. Group III (DETANONO two set group), animals received consecutive intravenous bolus doses of DETANONO (0.1 mg/kg each, every fifteen minutes and total dose 0.4 mg/kg) at 24 and 48 hours after occlusion. Group IV (DETANONO seven set group), animals received four consecutive intravenous bolus doses of DETANONO (0.1 mg/kg each, every fifteen minutes and total dose 0.4 mg/kg) at 24 hours after embolization. Subsequently, rats were intraperitoneally injected with DETA/NO at 0.4 mg/kg every day for six consecutive days.

[2] = tested on: neuronal progenitor cells in the SVZ and in the dentate gyrus; assay: Proliferation of neuronal progenitor cells (BrdU immunoreactive cells) in ischemic adult rats (embolic MCA occlusion)
Procedure: Two experiments were performed. In the first experiment, the effects of NO on the proliferation of neuronal progenitor cells in the SVZ and the dentate gyrus of non ischemic adult rats were examined. In the second experiment, the effects of NO on the proliferation of neuronal progenitor cells in the SVZ and in the dentate gyrus of ischemic adult rats were examined.
Based on above data, a second experiment was performed to explore NO effects on focal embolic cerebral ischemic brain. All procedures were the same as in the first experiment except for the following procedures.
as §1

[3] = tested on: newly formed cells (BrdU) in the subventricular zone and the dentate gyrus; assay: BrdU-positive newly formed cells in non-ischemic rats after single dose of DETANONO
Procedure: Treatment of non-ischemic brain with DETANONO: Rats not subjected to any surgical procedures were treated with DETANONO. The drug was administered as a single dose (iv 0.12 mg). BrdU was injected daily for 14 days after treatment. One population (Group 3) of rats was sacrificed on the last day of BrdU injection, Another population (Group 4) was sacrificed at four weeks after the last BrdU injection. Animals which were not administered DETA-NONO were given BrdU with the identical protocol as that for the DETA-NONO treated rats (Group 5).

ischemic rats (stroke) = assay: Battery of neurological functional tests (NSS, Rotarod, footfault, adhesive removal, body weight) after stroke
Procedure: Administration of nitric oxide donor compound (DETA/NO) to normal and ischemic rats promotes neurogenesis in non-ischemic and ischemic brains. Since then, additional experiments have been performed to test the hypothesis that neurogenesis induced by DETA/NO promotes functional improvement after stroke; the data is provided herewith. Animals were administered (iv/ip) DETA/NO at one day (Group 1) or seven days (Group 2) after induction of stroke and followed by daily injection (ip) of DETA/NO over a period of seven days. Another NO donor compound (SNAP) was administered (iv) to ischemic rats at one day and two days after stroke (Group 3). Young (3 month old) rats were used in Groups 1 and 2. Middle aged rats (10 to 12 months old) were used in Group 3. A battery of neurological functional tests were measured from two days to forty-two days after stroke. These tests included 1) Neurological severity score (NSS) which measures motor, sensory and reflex functions and is similar to the contralateral neglect testing described in humans. The higher the score, the more severe the injury; 2) Rotarod test measures fore and hindlimb motor coordination and balance. Data are presented as percentage of baseline values; 3) Footfault test measures fore and hindlimb motor coordination. The higher the number, the more severe the injury; 4) Adhesive removal test measures sensorimotor impairments. Data are presented as time (seconds). The longer the time period, the more severe the injury; 5) Animal body weight.

NCCN(CCN)/[N+]([O-])=N/O [DETANONO, DETANONOate]
ischemic lesion volume [1]: did not exhibit a significant reduction | BrdU immunoreactive cells in the OB ([2]; ischemic rats, 14 days and 42 days after MCA occlusion): Significant increases | BrdU immunoreactive cells in dentate gyrus ([2]; ischemic rats, 14 days and 42 days, vs MCA occlusion group): significant increases | numbers of BrdU immunoreactive cells in the SVZ ([2]; preconditioned group (24 hours before embolization), contralateral SVZ at 14 days, both SVZs at 42 days, vs non-treated MCA occlusion): Significant (p<0.05) increases | BrdU immunoreactive cells in the SVZ ([2]; seven sets, contralateral and ipsilateral SVZ at 14 days and 42 days after MCA occlusion): significant increases | numbers of BrdU immunoreactive cells in the SVZ ([2]; two dosage group (24 and 48 hours after occlusion), ipsilateral SVZ at 14 days, both SVZ at 42 days): significant increase | BrdU cells, subventricular zones (two values, sides not given) ([3]; Group 3: single dose iv 0.12 mg, sacrificed on last day of BrdU injection, Group 5 controls 1432.6±104.6, 1655.2±102.9, in cells/mm2): 2952±102.6 and 2725.3±115.5 | BrdU cells, dentate gyrus (granule cell layer) ([3]; Group 3, Group 5 control 39.9±7.26): 73.7±8.11 | BrdU cells, subventricular zone (two values, sides not given) ([3]; Group 4: single dose iv 0.12 mg, sacrificed four weeks after last BrdU injection, controls 214.6±67.9, 233.1±49.2, in cells/mm2): 456.5±42.3 and 518.4±67.2 | animal body weight (ischemic rats (stroke); Group 1: from one day after stroke, daily ip over seven days, vs control): Significant improvements | motor and sensorimotor functions (Rotarod, Adhesive Removal, NSS tests) (ischemic rats (stroke); Group 1: from one day after stroke, daily ip over seven days, young rats, vs control): Significant improvements | neurological function, Rotarod test (ischemic rats (stroke); Group 2: from seven days after stroke, at 28 and 42 days after stroke, only this test): significant improvement
